Assays:
STING-mNeonGreen = test: STING degradation in 293T STING-mNeonGreen reporter cell line by flow cytometry; conditions: 293T STING-mNG; 4 μg/mL 2′3′-cGAMP(pS)2; 0.5 μM MLN7243; FIGS. 5A-5B
Method: MLN7243 (Selleckchem) was used at 0.5 μM in all experiments. All cell lines were pre-treated for one hour before cGAMP stimulation. […] Cells were stimulated with 300 μL cGAMP permeabilization buffer containing 0.5 μg/mL 2′3′-cGAMP for 10 minutes, washed with 3 mL of medium, and medium was then replaced. MLN7243 was added again after medium replacement. Cells were stimulated for the indicated times.
Cells were then washed twice with Cytoperm and resuspended in FACS buffer for flow cytometry. Acquisition was performed on a Cytoflex S or Cytoflex LX (Beckman Coulter). Data was analyzed with FlowJo (BD).

CD14+ monocytes = test: Immunoblot of phospho-STING in CD14+ monocytes from healthy donors; assay type: cell-based, human; conditions: 5 μg/mL 2′3′-cGAMP, 6 hours, MLN7243, FIG. 12K
From the text: FIGS. 12A-12O show involvement of ESCRT components in ubiquitination and degradation of STING. […] One representative blot of n=2 independent experiments. […] One representative plot of n=3 technical replicates. […] Each dot represents one technical replicate. Paired t-test, *** p<0.001. […] One representative plot of n=3 independent experiments with n=2 technical replicates per experiment. […] Each dot represents an individual replicate. One-way ANOVA with Dunnet's multiple comparisons. **** p<0.0001, *** p<0.001. […] FIGS. 12G-12J show immunofluorescence in 293T stably expressing STING-HA after stimulation with cGAMP for 2 hours. […] Dashed boxes represent the cropped regions shown in the right panels. One representative field of n≥5 fields in n=2 independent experiments. Scale bar is 10 μm. […] One representative blot of n=3 independent donors in n=2 independent experiments. […] One representative experiment of n=3 independent experiments with n=2 technical replicates. […] Friedman test with Dunn's multiple comparison test. **** p<0.0001, ** p<0.01, ns: not significant.
CD14+ monocytes were isolated from peripheral adult human blood as previously described 1. […]
Samples for pull-downs or immunoprecipitations were treated as described in the corresponding paragraphs. […] ECL signal was recorded on a ChemiDoc Biorad Imager. Data was analyzed with ImageLab (Biorad).

STING ubiquitination = test: FLAG-ubiquitin immunoprecipitation of STING in 293T STING-HA / FLAG-ubiquitin cells; assay type: cell-based, human; conditions: 2′3′-cGAMP, 2 hours; 0.5 μM MLN7243; FIG. 12A
Method: 293T cells were transduced with pTRIP-hPGK-Blast-2A-STING-HA and pTRIP-hPGK-Hygro-2A-FLAG-Ubiquitin and selected with […] Blasticidin (Invivogen) and 320 μg/mL Hygromycin (Invivogen) for one week. 1 million cells/well were plated in a 6 well plate the day prior to the stimulation. Cells were then stimulated with 300 μL cGAMP permeabilization buffer containing 1 μg/mL cGAMP for 10 minutes, washed with 3 mL of warm medium, and the medium was replaced. 3 wells per condition were harvested 2 hours post stimulation, washed with PBS and lysed with 550 μL of RIPA buffer for 10 minutes on ice. Lysates were cleared at 16000 g for 10 minutes at 4° C. 10% of the lysate was saved as input. The remaining lysates were incubated with 150 μL Pierce Anti-[…] Magnetic beads (Thermo Fisher) O/N at 4° C. with constant rotation. Beads were washed 3 times with a buffer containing 10 mM Tris-HCl pH7.5 (Thermo Fisher), 2 mM EDTA (Thermo Fisher), 1% Nonidet-P40 Substitute (Roche) and 50 mM NaCl (Thermo Fisher), and 2 times with RIPA buffer. Proteins were eluted by adding 150 μL of non-reducing Laemmli (Boston bioproducts) containing 20 mM DTT (Thermo Fisher) and boiled for 20 minutes. Input was diluted with 2× sample buffer (Sigma).
(§1) MLN7243 was added again after medium replacement. Cells were stimulated for the indicated times.

[1] = test system: 293T stably expressing STING-HA; test: Immunofluorescence of HGS, p62, CD63, LC3B and STING in 293T STING-HA after cGAMP; assay type: cell-based, human; conditions: 293T STING-HA; cGAMP 2 hours; MLN7243; FIGS. 5E-5F
Method: 293T STING-TurboID were seeded directly on coverslips. 293T STING-HA were seeded on Fibronectin bovine plasma (Sigma-stock: 100×) coated coverslips. Cells were seeded the day before stimulation at 0.1 million cells/well density in 24 well plates. Cells were stimulated with cGAMP permeabilization buffer containing 1 μg/mL cGAMP for 10 minutes, washed with warm medium, and incubated for the indicated times. hTert-BJ1 mScarlet or mScarlet-UBAP1DN were seeded Fibronectin bovine plasma coated coverslips at 0.05 million cells/well density in a 24 well plate and fixed 6 hours post seeding. Cells were then fixed with 2% Paraformaldehyde (Electron Microscopy Sciences) in PHEM buffer (Electron Microscopy Sciences) for 30 minutes at 37° C., washed three times with PBS and quenched with freshly prepared 0.1M Glycine for 10 minutes. Coverslips were then permeabilized and blocked with 10% goat serum (Thermo Fisher) in PBS, 0.5% BSA (Seracare), 0.05% Saponin from Quillaja bark (Sigma) for 30 minutes. Coverslips were then stained with primary antibodies for 1-2 hours at room temperature in PBS, 0.5% BSA (Seracare), 0.05% Saponin from Quillaja bark (Sigma) with 10% goat serum, washed 5 times, and then stained with secondary antibodies in PBS, 0.5% BSA (Seracare), 0.05% Saponin from Quillaja bark (Sigma) for 1-2 hours. […] Images were analyzed in FiJi. […]

BJ1 fibroblasts = test: Immunoblot of STING signaling in BJ1 fibroblasts stimulated with cGAMP; assay type: cell-based, human; conditions: cGAMP 2 hours, 0.5 μM MLN7243, FIG. 5D
Method: as §1
Samples for pull-downs or immunoprecipitations were treated as described in the corresponding paragraphs. For experiments involving seeding of cells in 6 well plates or 24 well plates (293 Ts and hTert-BJ1), one well per condition was harvested, lysed in RIPA buffer (Boston Bioproducts) containing complete, Mini, EDTA-free Protease Inhibitor Cocktail (Millipore Sigma) and PhosSTOP (Millipore Sigma) for 10 minutes on ice. Lysates were cleared by centrifugation at 16000 g for 10 minutes at 4° C. and Laemmli 6×, Sample buffer, SDS, and reducing agents (Boston Bioproducts) were added prior to loading. Samples were run on NuPAGE 4 to 12%, Bis-Tris Gels (Thermo Fisher) and transferred on nitrocellulose membrane with an iBlot2 (Thermo Fisher). Membranes were blocked in 5% non-fat milk in TBS Tween. Antibodies against phospho-proteins were incubated in 5% BSA TBS tween. ECL signal was recorded on a ChemiDoc Biorad Imager. Data was analyzed with ImageLab (Biorad).

Compound: NS(=O)(=O)OC[C@H]1C[C@@H](Nc2ccnc3cc(-c4cccc(SC(F)(F)F)c4)nn23)[C@H](O)[C@@H]1O [MLN7243]
- degradation of STING (% STING-mNG positive cells) (STING-mNeonGreen): complete block of degradation of STING
- phospho-STING levels (CD14+ monocytes): strong increase in phospho-STING levels
- STING ubiquitination (STING ubiquitination): blocked STING ubiquitination
- HGS co-localization with p62 [1]: failed to co-localize with p62
- HGS foci co-localizing with STING [1]: completely lost
- STING degradation (BJ1 fibroblasts): abrogated STING degradation
- lipidated LC3B (BJ1 fibroblasts): induced accumulation of lipidated LC3B
- phospho-STING signaling (BJ1 fibroblasts): increased phospho-STING signaling
